One compound from US20210275686A1, “BINDER/ACTIVE AGENT CONJUGATES DIRECTED AGAINST CXCR5, HAVING ENZYMATICALLY CLEAVABLE LINKERS AND IMPROVED ACTIVITY PROFILE” (BAYER AKTIENGESELLSCHAFT, priority 2018, published 2021) can be followed below.

SMILES strings stand for the structures.

In test [1] the test system is NCI-H292: human mucoepidermoid lung cancer cells. As to the kind of experiment: Cytotoxic activity, MTT assay, NCI-H292. It is filed as cell-based. Conditions: metabolites, 96 h. How it is done:
(§1) The culturing of the cells is performed according to the standard method, as specified at the American Tissue Culture Collection (ATCC) or the Leibniz-Institut DSMZ-Deutsche Sammlung von Mikroorganismen and Zellkulturen GmbH (DSMZ) for the respective cell lines.
(§2) The culturing of the cells was performed according to the standard method with the growth media specified under C-1. For execution, the cells were separated with a solution of Accutase in PBS (Biochrom AG #L2143), pelleted, resuspended in culture medium, counted and seeded on a 96-well culture plate with a white background (Costar #3610) (NCI H292: 2500 cells/well; in 100 μL total volume). Then the cells were incubated in an incubator at 37° C. and 5% carbon dioxide. After 48 h a change of medium was performed. […] The cells in the suspension were counted and seeded into a 96-well culture plate with white background (Costar #3610) (#3610) (Rec-1: 3000 cells/well at a total volume of 100 μL). […] After 96 h the cell proliferation was detected using the MTT assay (ATCC, Manassas, Va., USA, Catalog No. 30-1010K). […] The color formed was detected at 570 nm (Infinite M1000 pro, Tecan). Based on the measured data the IC50 of the growth inhibition was calculated using the DRC (dose-response curve). […]

Test [2] has as its system Rec-1: human mantle cell lymphoma cells. As to the kind of experiment: Cytotoxic activity, CTG assay, Rec-1. The following applies: Rec1, metabolites. It is filed as cell-based. How it is done: as §1
The cells were cultured using the standard method, with the growth media specified under C-1. To perform the test, the suspended cells were counted and seeded in a 96-well culture plate with a white background (Perkin Elmer, NO 10775584) (at 75 μL/well; the resulting cell numbers per well are: Rec-1: 3000 cells/well, HBL-1 and Oci-Ly-1: 6000 cells/well) and incubated in an incubator at 37° C. and 5% carbon dioxide. […] In a parallel plate, the cell vitality was determined at the beginning of the active agent treatment (day 0) with the Cell Titer Glow (CTG) Luminescent Cell Viability Assay (Promega #G7573 and #G7571). For this purpose, 100 μL of the substrate were added per cell batch; then the plates were covered with aluminum foil, shaken for 2 minutes at 180 rpm with the plate shaker, allowed to stand for 8 minutes on the laboratory bench and then measured with a luminometer (Victor X2, Perkin Elmer). The substrate detected the ATP content in the living cells, generating a luminescence signal whose height is directly proportional to the vitality of the cells. […]

Test [3] shares this test system. As to the kind of experiment: Cytotoxic activity, MTT assay, Rec-1. It is filed as cell-based. Conditions: Rec1, metabolites, 96 h. The method, then:
as §1, §2
A general note: Tetrazolium assays rely on reduction of a dye to a coloured formazan, in cell work by metabolically active cells.

Test [4] concerns the target T1, human kinesin spindle protein KSP/Eg5 (Homo sapiens, UniProt P52732).
T1 construct: The motor domain of the human kinesin spindle protein KSP/Eg5; purchased tebu-bio/Cytoskeleton Inc 027EG01-XL
T1 sequence (P52732 18-359 limits assumed): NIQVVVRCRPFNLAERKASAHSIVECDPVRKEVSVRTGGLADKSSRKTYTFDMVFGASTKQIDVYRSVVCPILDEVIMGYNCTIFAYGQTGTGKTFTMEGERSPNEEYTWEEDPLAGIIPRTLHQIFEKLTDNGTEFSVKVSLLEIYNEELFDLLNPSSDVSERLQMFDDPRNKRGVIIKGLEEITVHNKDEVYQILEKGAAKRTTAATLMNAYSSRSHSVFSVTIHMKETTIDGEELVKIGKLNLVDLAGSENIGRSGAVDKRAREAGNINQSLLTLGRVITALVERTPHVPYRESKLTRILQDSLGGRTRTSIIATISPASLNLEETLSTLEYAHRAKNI
As to the kind of experiment: Inhibition of kinesin spindle protein KSP/Eg5 (ATPase, malachite green). It is filed as biochemical. Conditions: 10 nM KSP motor domain, microtubules, 500 μM ATP, 2 h RT.
Procedure: The motor domain of the human kinesin spindle protein KSP/Eg5 (tebu-bio/Cytoskeleton Inc, No. 027EG01-XL) was incubated in a concentration of 10 nM with microtubules (bovine or porcine, tebu-bio/Cytoskeleton Inc) stabilized with 50 μg/ml taxol (Sigma No. T7191-5MG) for 5 min at RT in 15 mM PIPES, pH 6.8 (5 mM MgCl2 and 10 mM DTT, Sigma). The freshly prepared mixture was aliquoted into a 384 MTP (from Corning). This was followed by the addition of the inhibitors to be investigated at concentrations from 1.0×10^−6 M to 1.0×10^−13 M and ATP (final concentration 500 μM; Sigma). The mixture was incubated at RT for 2 h. The ATPase activity was determined by detection of the inorganic phosphate produced with malachite green (Biomol). Addition of the reagent was followed by incubation for 50 min at RT before the absorption was detected at a wavelength of 620 nm. Monastrol (Sigma, M8515-1 mg) and ispinesib (AdooQ Bioscience A10486) were used as positive controls. The individual data for the dose-efficacy curve are from eight-fold determinations. The IC50 values are mean values from two independent experiments.

What is called IC50 is the point on the concentration scale where inhibition reaches its midpoint. As to `CC(C)(C)[C@H](c1cc(-c2cc(F)ccc2F)cn1Cc1ccccc1)N(CCCN)C(=O)CO` [Reference Example R1M, N-(3-Aminopropyl)-N-{(IR)-1-[1-benzyl-4-(2,5-difluorophenyl)-IH-pyrrol-2-yl]-2,2-dimethylpropyl}-2-hydroxyacetamide, reference compound], the IC50 in test [1] amounted to 0.27 nM; in test [2], 0.205 nM; in test [3] it was 0.293 nM; in test [4] it was 1.09 nM.
